The numbers were not newly measured in article PMC3518266 (Chemistry & biology, 2010), which cites them from elsewhere.

The target in the series is hevamine. The note with it: competitive inhibition of hevamine; ref Vaaje-Kolstad et al., 2004; cited from earlier work.

One may read the Ki as the equilibrium dissociation constant of an inhibitor or competing ligand from its target. On to `CC(=O)N[C@H]1[C@H](O[C@H]2[C@@H](O)[C@@H](NC(C)=O)[C@H](O[C@H]3[C@H](O)[C@H]4N=C(N(C)C)O[C@H]4[C@@H]3CO)O[C@@H]2CO)O[C@H](CO)[C@@H](O)[C@H]1O` [allosamidin], for which the Ki was 3.1 µM.
